Where two headings read alike, the source gives them in different places.
Assay: Phase I study CXR1002-001: plasma pharmacokinetics (LC-MS/MS)
Type: in vivo, human
Conditions: human, plasma, oral; for concentration at 528 h / concentration at 528 hr: 528 hr (Day 23); for concentration at 696 h: 696 hr (Day 30); for concentration at 840 h: 840 hr (Day 36)
Description: PK samples, PD (fasting) samples, blood glucose, and blood triglyceride samples, were taken over a 6-week period.
Dose limiting toxicity (DLT) will be based on the toxicity assessments over the first 3-week period of the repeat dosing schedule. PK samples (single blood sample) were taken on the following basis: • Every 6 weeks during the repeat dosing phase • If dosing is interrupted or stopped, samples will be taken at intervals according to patient convenience • PK sampling for safety evaluation may take place at any time, as clinically indicated
Plasma samples were collected after the single 50 mg dose at the following timepoints: Pre-dose, and then 0.25, 0.5, 0.75, 1, 1.5, 2, 3, 4, 6, 24, 48, and 72 hours after administration and then once weekly at weeks 2, 3, 4, 5, and 6 (days 8, 15, 22, 29, and 36). For patients treated with the weekly repeat dose, plasma samples were collected at the following timepoints: Pre-dose and then 2, 3, 4 and 24 hours after administration for a total of 6 weeks. Thereafter a single sample was collected every 6 weeks for monitoring of exposure during long term treatment. Plasma samples were processed at site and stored at −80° C. prior to batch shipment to the analytical laboratory.

[1] = 100 mg, Patient 005 Dose 100 mg, read-out: Concentration
[2] = 100 mg, Patient 006 Dose 100 mg, read-out: Concentration
[3] = 100 mg, Patient 007 Dose 100 mg, read-out: Concentration
[4] = 200 mg, Patient 008 Dose 200 mg, read-out: Concentration
[5] = 200 mg, Patient 009 Dose 200 mg, read-out: Concentration

O=C(O)C(F)(F)C(F)(F)C(F)(F)C(F)(F)C(F)(F)C(F)(F)C(F)(F)F [CXR1002]
concentration at 360 h (100 mg, Patient 005 Dose 100 mg, 360 hr (Day 16), read-out: Concentration): 47.4 µM
concentration at 504 h (100 mg, Patient 005 Dose 100 mg, 504 hr (Day 22), read-out: Concentration): 48.4 µM
concentration at 506 h (100 mg, Patient 005 Dose 100 mg, 506 hr, read-out: Concentration): 84 µM
concentration at 507 h [1]: 74.4 µM
concentration at 508 h (100 mg, Patient 005 Dose 100 mg, 508 hr, read-out: Concentration): 87.4 µM
concentration at 528 h [1]: 57.9 µM
concentration at 672 h (100 mg, Patient 005 Dose 100 mg, 672 hr (Day 29), read-out: Concentration): 80.8 µM
concentration at 674 h (100 mg, Patient 005 Dose 100 mg, 674 hr, read-out: Concentration): 99.7 µM
concentration at 675 h (100 mg, Patient 005 Dose 100 mg, 675 hr, read-out: Concentration): 101 µM
concentration at 676 h [1]: 82.7 µM
concentration at 696 h [1]: 78.8 µM
concentration at 840 h [1]: 99.4 µM
concentration at 842 h (100 mg, Patient 005 Dose 100 mg, 842 hr, read-out: Concentration): 80 µM
concentration at 843 h (100 mg, Patient 005 Dose 100 mg, 843 hr, read-out: Concentration): 98.9 µM
concentration at 844 h (100 mg, Patient 005 Dose 100 mg, 844 hr, read-out: Concentration): 91.4 µM
concentration at 864 h (100 mg, Patient 005 Dose 100 mg, 864 hr (Day 37), read-out: Concentration): 109 µM
concentration at 92 day (100 mg, Patient 005 Dose 100 mg, Day 92): 276 µM
concentration at 0 h (100 mg, Patient 006 Dose 100 mg): 0.21 µM
concentration at 2 h [2]: 32.3 µM
concentration at 3 h [2]: 27.1 µM
concentration at 4 h (100 mg, Patient 006 Dose 100 mg, 4 hr, read-out: Concentration): 24.6 µM
concentration at 24 h (100 mg, Patient 006 Dose 100 mg, 24 hr (Day 2), read-out: Concentration): 28.2 µM
concentration at 168 h (100 mg, Patient 006 Dose 100 mg, 168 hr (Day 8), read-out: Concentration): 26.2 µM
concentration at 170 h [2]: 36.6 µM
concentration at 171 hr (100 mg, Patient 006 Dose 100 mg, 171 hr, read-out: Concentration): 41.1 µM
concentration at 172 hr (100 mg, Patient 006 Dose 100 mg, 172 hr, read-out: Concentration): 47.5 µM
concentration at 192 hr (100 mg, Patient 006 Dose 100 mg, 192 hr (Day 9), read-out: Concentration): 44.7 µM
concentration at 336 h (100 mg, Patient 006 Dose 100 mg, 336 hr (Day 15), read-out: Concentration): 33.1 µM
concentration at 338 h [2]: 49.5 µM
concentration at 339 h [2]: 55.9 µM
concentration at 360 h (100 mg, Patient 006 Dose 100 mg, 360 hr (Day 16), read-out: Concentration): 65.2 µM
concentration at 504 h (100 mg, Patient 006 Dose 100 mg, 504 hr (Day 22), read-out: Concentration): 70.5 µM
concentration at 506 h (100 mg, Patient 006 Dose 100 mg, 506 hr, read-out: Concentration): 76.4 µM
concentration at 507 hr [2]: 83.8 µM
concentration at 528 hr [2]: 97 µM
concentration at 672 h (100 mg, Patient 006 Dose 100 mg, 672 hr (Day 29), read-out: Concentration): 86.9 µM
concentration at 674 h (100 mg, Patient 006 Dose 100 mg, 674 hr, read-out: Concentration): 85.7 µM
concentration at 696 h [2]: 89.5 µM
concentration at 840 h [2]: 85.6 µM
concentration at 842 hr (100 mg, Patient 006 Dose 100 mg, 842 hr, read-out: Concentration): 179 µM
concentration at 843 hr (100 mg, Patient 006 Dose 100 mg, 843 hr, read-out: Concentration): 138 µM
concentration at 844 hr (100 mg, Patient 006 Dose 100 mg, 844 hr, read-out: Concentration): 138 µM
concentration at 864 hr (100 mg, Patient 006 Dose 100 mg, 864 hr (Day 37), read-out: Concentration): 123 µM
concentration at 0 hr (100 mg, Patient 007 Dose 100 mg): 0 nM
concentration at 2 hr [3]: 30.9 µM
concentration at 3 hr [3]: 28.6 µM
concentration at 4 hr (100 mg, Patient 007 Dose 100 mg, 4 hr, read-out: Concentration): 19.3 µM
concentration at 24 hr (100 mg, Patient 007 Dose 100 mg, 24 hr (Day 2), read-out: Concentration): 17.3 µM
concentration at 168 hr (100 mg, Patient 007 Dose 100 mg, 168 hr (Day 8), read-out: Concentration): 12.2 µM
concentration at 336 hr (100 mg, Patient 007 Dose 100 mg, 336 hr (Day 15), read-out: Concentration): 19.2 µM
concentration at 338 hr [3]: 52.8 µM
concentration at 339 hr [3]: 53.1 µM
concentration at 340 hr (100 mg, Patient 007 Dose 100 mg, 340 hr, read-out: Concentration): 55.8 µM
concentration at 360 hr (100 mg, Patient 007 Dose 100 mg, 360 hr (Day 16), read-out: Concentration): 32 µM
concentration at 504 hr (100 mg, Patient 007 Dose 100 mg, 504 hr (Day 22), read-out: Concentration): 39.7 µM
concentration at 506 hr (100 mg, Patient 007 Dose 100 mg, 506 hr, read-out: Concentration): 53.1 µM
concentration at 507 hr [3]: 65.8 µM
concentration at 508 hr (100 mg, Patient 007 Dose 100 mg, 508 hr, read-out: Concentration): 73 µM
concentration at 528 hr [3]: 63.4 µM
concentration at 0 hr (200 mg, Patient 008 Dose 200 mg): 0 nM
concentration at 2 hr [4]: 114 µM
concentration at 3 hr [4]: 102 µM
concentration at 4 h (200 mg, Patient 008 Dose 200 mg, 4 hr, read-out: Concentration): 81 µM
concentration at 24 h (200 mg, Patient 008 Dose 200 mg, 24 hr (Day 2), read-out: Concentration): 70.4 µM
concentration at 168 h (200 mg, Patient 008 Dose 200 mg, 168 hr (Day 8), read-out: Concentration): 64.6 µM
concentration at 170 h [4]: 171 µM
concentration at 171 h (200 mg, Patient 008 Dose 200 mg, 171 hr, read-out: Concentration): 143 µM
concentration at 172 h (200 mg, Patient 008 Dose 200 mg, 172 hr, read-out: Concentration): 130 µM
concentration at 192 h (200 mg, Patient 008 Dose 200 mg, 192 hr (Day 9), read-out: Concentration): 110 µM
concentration at 336 hr (200 mg, Patient 008 Dose 200 mg, 336 hr (Day 15), read-out: Concentration): 124 µM
concentration at 338 hr [4]: 147 µM
concentration at 339 hr [4]: 172 µM
concentration at 340 h (200 mg, Patient 008 Dose 200 mg, 340 hr, read-out: Concentration): 192 µM
concentration at 360 h (200 mg, Patient 008 Dose 200 mg, 360 hr (Day 16), read-out: Concentration): 211 µM
concentration at 504 h (200 mg, Patient 008 Dose 200 mg, 504 hr (Day 22), read-out: Concentration): 277 µM
concentration at 506 h (200 mg, Patient 008 Dose 200 mg, 506 hr, read-out: Concentration): 282 µM
concentration at 507 h [4]: 368 µM
concentration at 508 h (200 mg, Patient 008 Dose 200 mg, 508 hr, read-out: Concentration): 281 µM
concentration at 528 h [4]: 285 µM
concentration at 672 hr (200 mg, Patient 008 Dose 200 mg, 672 hr (Day 29), read-out: Concentration): 337 µM
concentration at 674 hr (200 mg, Patient 008 Dose 200 mg, 674 hr, read-out: Concentration): 356 µM
concentration at 675 hr (200 mg, Patient 008 Dose 200 mg, 675 hr, read-out: Concentration): 321 µM
concentration at 676 h [4]: 364 µM
concentration at 696 h [4]: 426 µM
concentration at 840 h [4]: 425 µM
concentration at 842 h (200 mg, Patient 008 Dose 200 mg, 842 hr, read-out: Concentration): 361 µM
concentration at 843 h (200 mg, Patient 008 Dose 200 mg, 843 hr, read-out: Concentration): 397 µM
concentration at 844 h (200 mg, Patient 008 Dose 200 mg, 844 hr, read-out: Concentration): 414 µM
concentration at 864 h (200 mg, Patient 008 Dose 200 mg, 864 hr (Day 37), read-out: Concentration): 354 µM
concentration at 0 h (200 mg, Patient 009 Dose 200 mg): 0 µM
concentration at 2 h [5]: 93.4 µM
concentration at 3 h [5]: 61.2 µM
concentration at 4 h (200 mg, Patient 009 Dose 200 mg, 4 hr, read-out: Concentration): 71.1 µM
concentration at 24 h (200 mg, Patient 009 Dose 200 mg, 24 hr (Day 2), read-out: Concentration): 64.6 µM
concentration at 168 h (200 mg, Patient 009 Dose 200 mg, 168 hr (Day 8), read-out: Concentration): 60.1 µM
concentration at 170 h [5]: 149 µM
concentration at 171 h (200 mg, Patient 009 Dose 200 mg, 171 hr, read-out: Concentration): 170 µM
concentration at 172 h (200 mg, Patient 009 Dose 200 mg, 172 hr, read-out: Concentration): 139 µM
concentration at 192 h (200 mg, Patient 009 Dose 200 mg, 192 hr (Day 9), read-out: Concentration): 136 µM
concentration at 338 h [5]: 161 µM
concentration at 339 h [5]: 167 µM
concentration at 340 h (200 mg, Patient 009 Dose 200 mg, 340 hr, read-out: Concentration): 153 µM
concentration at 360 h (200 mg, Patient 009 Dose 200 mg, 360 hr (Day 16), read-out: Concentration): 218 µM
concentration at 504 h (200 mg, Patient 009 Dose 200 mg, 504 hr (Day 22), read-out: Concentration): 253 µM
concentration at 506 h (200 mg, Patient 009 Dose 200 mg, 506 hr, read-out: Concentration): 285 µM
concentration at 507 h [5]: 296 µM
concentration at 508 h (200 mg, Patient 009 Dose 200 mg, 508 hr, read-out: Concentration): 362 µM
concentration at 528 h [5]: 242 µM
concentration at 672 h (200 mg, Patient 009 Dose 200 mg, 672 hr (Day 29), read-out: Concentration): 251 µM
concentration at 674 h (200 mg, Patient 009 Dose 200 mg, 674 hr, read-out: Concentration): 472 µM
concentration at 675 h (200 mg, Patient 009 Dose 200 mg, 675 hr, read-out: Concentration): 261 µM
concentration at 676 h [5]: 358 µM
concentration at 696 h [5]: 338 µM
concentration at 840 h [5]: 399 µM
concentration at 842 h (200 mg, Patient 009 Dose 200 mg, 842 hr, read-out: Concentration): 346 µM

From patent US20130029928A1 (priority 2010, published 2013)
